From the kinase profiling compilation of Christmann-Franck et al. (2016)

Tests used:
Test in all cases: KINOMEscan competition binding
Details in all cases: compound 2.0 µM
DCLK1 (human) = DCLK1 (human) (UniProt O15075)
MKNK1 (human) = MKNK1 (human) (UniProt Q9BUB5)
NTRK3 (human) = NTRK3 (human) (UniProt Q16288)
FGFR2 (human) = FGFR2 (human) (UniProt P21802)
PRKG1 (human) = PRKG1 (human) (UniProt Q13976)
EGFR (human) = EGFR (human) (UniProt P00533)
TLK1 (human) = TLK1 (human) (UniProt Q9UKI8)
[1] = tested on: PIK3CA (human), P42336 [E545K]
EPHA1 (human) = EPHA1 (human) (UniProt P21709)
PIM1 (human) = PIM1 (human) (UniProt P11309)
STK36 (human) = STK36 (human) (UniProt Q9NRP7)
ROCK1 (human) = ROCK1 (human) (UniProt Q13464)
[2] = tested on: EGFR (human), P00533 [G719S]
MAPK10 (human) = MAPK10 (human) (UniProt P53779)
CHUK (human) = CHUK (human) (UniProt O15111)
CSNK1D (human) = CSNK1D (human) (UniProt P48730)
PIM2 (human) = PIM2 (human) (UniProt Q9P1W9)
AKT1 (human) = AKT1 (human) (UniProt P31749)
STK32C (human) = STK32C (human) (UniProt Q86UX6)
PIK3C2B (human) = PIK3C2B (human) (UniProt O00750)
ACVR2A (human) = ACVR2A (human) (UniProt P27037)
MAP4K1 (human) = MAP4K1 (human) (UniProt Q92918)
PRKD3 (human) = PRKD3 (human) (UniProt O94806)
CDKL2 (human) = CDKL2 (human) (UniProt Q92772)
BLK (human) = BLK (human) (UniProt P51451)
CaMK1 (human) = CaMK1 (human) (UniProt Q14012)
CSF1R (human) = CSF1R (human) (UniProt P07333)
STK33 (human) = STK33 (human) (UniProt Q9BYT3)
MAPK3 (human) = MAPK3 (human) (UniProt P27361)
CDC42BPG (human) = CDC42BPG (human) (UniProt Q6DT37)
ERBB2 (human) = ERBB2 (human) (UniProt P04626)
CDC42BPB (human) = CDC42BPB (human) (UniProt Q9Y5S2)
DAPK3 (human) = DAPK3 (human) (UniProt O43293)
MYLK (human) = MYLK (human) (UniProt Q15746)
[3] = biological target: JAK2 JH1 catalytic (human) (UniProt O60674)
STK38L (human) = STK38L (human) (UniProt Q9Y2H1)
IKBKE (human) = IKBKE (human) (UniProt Q14164)
CDK2 (human) = CDK2 (human) (UniProt P24941)
[4] = tested on: KIT (human), P10721 [D816H]
CDK11B (human) = CDK11B (human) (UniProt P21127)
MARK4 (human) = MARK4 (human) (UniProt Q96L34)
[5] = tested on: EGFR (human), P00533 [752-759 del]
MAPK9 (human) = MAPK9 (human) (UniProt P45984)

TLK1 (human), sequence (Q9UKI8 whole entry, looked up): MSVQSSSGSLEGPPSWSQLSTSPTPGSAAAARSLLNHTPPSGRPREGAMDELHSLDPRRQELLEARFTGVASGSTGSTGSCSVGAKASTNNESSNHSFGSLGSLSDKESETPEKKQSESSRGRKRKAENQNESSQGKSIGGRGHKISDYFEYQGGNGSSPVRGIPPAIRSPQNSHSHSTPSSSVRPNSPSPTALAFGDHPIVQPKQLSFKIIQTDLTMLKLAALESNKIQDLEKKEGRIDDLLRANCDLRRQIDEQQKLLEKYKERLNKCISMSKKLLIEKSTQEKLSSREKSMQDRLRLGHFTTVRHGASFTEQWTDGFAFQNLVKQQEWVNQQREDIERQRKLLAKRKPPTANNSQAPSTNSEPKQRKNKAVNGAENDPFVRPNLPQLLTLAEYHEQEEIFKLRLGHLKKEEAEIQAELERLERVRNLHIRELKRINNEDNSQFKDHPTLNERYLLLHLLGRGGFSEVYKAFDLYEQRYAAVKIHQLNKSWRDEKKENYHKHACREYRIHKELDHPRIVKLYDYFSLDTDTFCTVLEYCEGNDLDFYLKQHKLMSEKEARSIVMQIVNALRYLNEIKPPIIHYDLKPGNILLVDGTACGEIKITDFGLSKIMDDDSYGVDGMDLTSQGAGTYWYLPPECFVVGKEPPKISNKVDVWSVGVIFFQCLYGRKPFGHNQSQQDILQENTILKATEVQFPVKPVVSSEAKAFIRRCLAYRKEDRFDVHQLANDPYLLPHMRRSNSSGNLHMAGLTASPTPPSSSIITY
MAP4K1 (human), sequence (Q92918 whole entry, looked up): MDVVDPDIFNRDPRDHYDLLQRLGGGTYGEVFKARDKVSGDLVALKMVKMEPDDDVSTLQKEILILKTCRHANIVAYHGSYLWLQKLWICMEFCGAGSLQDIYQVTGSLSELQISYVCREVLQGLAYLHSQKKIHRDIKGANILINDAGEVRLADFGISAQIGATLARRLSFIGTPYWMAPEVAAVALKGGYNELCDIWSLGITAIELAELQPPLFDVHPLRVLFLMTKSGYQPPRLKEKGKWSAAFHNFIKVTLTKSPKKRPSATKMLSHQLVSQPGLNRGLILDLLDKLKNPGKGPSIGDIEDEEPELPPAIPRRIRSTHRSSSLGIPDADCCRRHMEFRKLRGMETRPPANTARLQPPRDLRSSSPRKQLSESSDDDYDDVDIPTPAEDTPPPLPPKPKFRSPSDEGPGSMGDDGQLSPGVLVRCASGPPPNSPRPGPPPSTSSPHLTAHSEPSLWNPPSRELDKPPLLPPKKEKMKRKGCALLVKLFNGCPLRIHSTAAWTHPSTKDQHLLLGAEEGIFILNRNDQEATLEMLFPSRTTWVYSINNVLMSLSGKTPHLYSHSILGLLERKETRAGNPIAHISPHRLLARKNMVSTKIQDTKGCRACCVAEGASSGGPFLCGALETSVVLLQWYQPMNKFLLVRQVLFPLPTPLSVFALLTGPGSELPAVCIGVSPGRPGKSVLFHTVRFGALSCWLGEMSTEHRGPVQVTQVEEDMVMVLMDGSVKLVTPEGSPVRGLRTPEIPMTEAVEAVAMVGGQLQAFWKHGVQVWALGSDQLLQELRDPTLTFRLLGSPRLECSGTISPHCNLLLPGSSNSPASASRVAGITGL
JAK2 JH1 catalytic (human), sequence (O60674 whole entry, looked up): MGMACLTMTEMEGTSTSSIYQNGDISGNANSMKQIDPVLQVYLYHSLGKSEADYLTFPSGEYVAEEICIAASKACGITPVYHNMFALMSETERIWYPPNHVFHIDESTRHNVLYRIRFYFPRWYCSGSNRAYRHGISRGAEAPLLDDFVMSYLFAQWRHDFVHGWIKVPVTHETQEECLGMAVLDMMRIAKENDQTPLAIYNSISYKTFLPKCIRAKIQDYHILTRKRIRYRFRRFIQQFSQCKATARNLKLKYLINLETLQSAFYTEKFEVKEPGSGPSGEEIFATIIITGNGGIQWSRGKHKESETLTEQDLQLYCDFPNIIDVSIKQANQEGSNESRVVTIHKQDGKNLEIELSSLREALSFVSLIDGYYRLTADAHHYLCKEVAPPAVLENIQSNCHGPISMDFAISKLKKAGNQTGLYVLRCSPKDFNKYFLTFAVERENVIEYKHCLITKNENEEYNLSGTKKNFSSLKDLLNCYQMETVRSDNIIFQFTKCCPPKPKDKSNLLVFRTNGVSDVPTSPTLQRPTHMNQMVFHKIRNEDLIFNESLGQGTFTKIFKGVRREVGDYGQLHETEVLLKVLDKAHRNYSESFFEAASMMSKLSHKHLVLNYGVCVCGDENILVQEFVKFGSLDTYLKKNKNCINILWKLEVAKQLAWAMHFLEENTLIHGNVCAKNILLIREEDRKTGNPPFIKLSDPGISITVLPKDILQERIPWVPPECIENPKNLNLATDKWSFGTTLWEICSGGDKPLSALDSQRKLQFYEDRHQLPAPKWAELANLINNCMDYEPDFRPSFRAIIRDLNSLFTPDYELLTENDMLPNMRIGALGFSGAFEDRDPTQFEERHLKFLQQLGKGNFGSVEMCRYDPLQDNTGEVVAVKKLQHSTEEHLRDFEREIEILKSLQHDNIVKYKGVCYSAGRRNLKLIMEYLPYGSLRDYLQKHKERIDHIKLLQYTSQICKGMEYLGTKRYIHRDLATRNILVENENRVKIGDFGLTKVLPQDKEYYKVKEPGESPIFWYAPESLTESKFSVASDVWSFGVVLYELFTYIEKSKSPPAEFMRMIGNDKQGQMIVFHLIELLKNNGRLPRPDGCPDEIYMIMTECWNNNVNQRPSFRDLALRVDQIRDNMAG
PIK3C2B (human), sequence (O00750 whole entry, looked up): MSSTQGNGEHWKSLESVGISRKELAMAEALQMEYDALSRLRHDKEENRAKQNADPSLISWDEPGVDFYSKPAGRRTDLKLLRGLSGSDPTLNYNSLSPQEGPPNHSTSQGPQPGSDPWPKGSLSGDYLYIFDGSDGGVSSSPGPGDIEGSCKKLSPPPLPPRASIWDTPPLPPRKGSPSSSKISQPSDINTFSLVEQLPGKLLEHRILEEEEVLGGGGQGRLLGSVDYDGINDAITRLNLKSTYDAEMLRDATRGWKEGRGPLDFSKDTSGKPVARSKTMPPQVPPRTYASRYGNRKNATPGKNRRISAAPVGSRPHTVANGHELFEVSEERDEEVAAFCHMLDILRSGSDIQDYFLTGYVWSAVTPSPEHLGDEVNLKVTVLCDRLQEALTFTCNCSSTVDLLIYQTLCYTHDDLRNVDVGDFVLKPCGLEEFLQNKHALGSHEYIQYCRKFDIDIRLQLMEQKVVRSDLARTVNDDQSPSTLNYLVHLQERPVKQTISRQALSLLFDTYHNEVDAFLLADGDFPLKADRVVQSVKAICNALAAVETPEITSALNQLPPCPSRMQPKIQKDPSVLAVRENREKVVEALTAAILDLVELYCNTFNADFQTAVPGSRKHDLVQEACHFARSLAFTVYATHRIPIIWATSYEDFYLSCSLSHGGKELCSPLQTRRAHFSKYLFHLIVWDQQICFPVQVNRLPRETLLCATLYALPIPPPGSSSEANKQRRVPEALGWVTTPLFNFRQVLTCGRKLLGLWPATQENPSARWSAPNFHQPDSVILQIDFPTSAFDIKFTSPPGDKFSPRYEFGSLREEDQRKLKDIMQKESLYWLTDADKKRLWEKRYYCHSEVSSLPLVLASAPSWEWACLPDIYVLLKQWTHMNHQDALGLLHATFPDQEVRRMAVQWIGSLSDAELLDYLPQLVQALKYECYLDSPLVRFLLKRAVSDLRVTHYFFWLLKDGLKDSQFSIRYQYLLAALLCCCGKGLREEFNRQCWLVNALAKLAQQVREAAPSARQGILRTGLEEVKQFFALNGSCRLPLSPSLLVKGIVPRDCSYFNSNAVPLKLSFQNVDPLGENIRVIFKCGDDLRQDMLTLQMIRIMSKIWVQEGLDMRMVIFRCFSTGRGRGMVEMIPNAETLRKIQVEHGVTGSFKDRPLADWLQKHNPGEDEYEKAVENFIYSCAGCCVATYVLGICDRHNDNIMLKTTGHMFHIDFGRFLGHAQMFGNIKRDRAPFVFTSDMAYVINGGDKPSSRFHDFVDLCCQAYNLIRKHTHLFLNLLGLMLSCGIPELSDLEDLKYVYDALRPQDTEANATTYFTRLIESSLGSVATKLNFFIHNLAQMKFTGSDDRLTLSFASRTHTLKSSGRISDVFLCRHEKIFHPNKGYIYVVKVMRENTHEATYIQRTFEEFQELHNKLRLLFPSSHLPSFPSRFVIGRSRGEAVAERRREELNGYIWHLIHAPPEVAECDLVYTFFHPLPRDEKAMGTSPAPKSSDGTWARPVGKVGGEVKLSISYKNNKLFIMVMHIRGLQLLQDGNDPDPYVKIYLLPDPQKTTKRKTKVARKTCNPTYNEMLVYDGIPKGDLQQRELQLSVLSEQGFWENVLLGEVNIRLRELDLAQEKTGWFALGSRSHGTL
PIM1 (human), sequence (P11309 whole entry, looked up): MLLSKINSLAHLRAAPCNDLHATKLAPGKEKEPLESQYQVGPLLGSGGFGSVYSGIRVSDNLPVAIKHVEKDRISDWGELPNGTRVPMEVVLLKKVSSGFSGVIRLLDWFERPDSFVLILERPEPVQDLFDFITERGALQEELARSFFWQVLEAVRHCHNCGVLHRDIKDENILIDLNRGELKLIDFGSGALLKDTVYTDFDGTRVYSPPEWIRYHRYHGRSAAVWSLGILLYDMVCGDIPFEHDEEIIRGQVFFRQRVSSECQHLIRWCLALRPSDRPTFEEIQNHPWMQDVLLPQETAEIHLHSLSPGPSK
PIM2 (human), sequence (Q9P1W9 whole entry, looked up): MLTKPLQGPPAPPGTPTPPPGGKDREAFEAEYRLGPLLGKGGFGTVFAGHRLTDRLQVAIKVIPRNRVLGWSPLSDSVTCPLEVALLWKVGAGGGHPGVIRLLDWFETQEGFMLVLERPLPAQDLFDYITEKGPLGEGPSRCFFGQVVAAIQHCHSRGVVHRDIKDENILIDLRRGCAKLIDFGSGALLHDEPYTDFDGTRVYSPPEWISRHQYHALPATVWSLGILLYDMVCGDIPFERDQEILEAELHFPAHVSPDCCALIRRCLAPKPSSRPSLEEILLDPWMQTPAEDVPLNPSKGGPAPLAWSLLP

N#Cc1ccc2ncnc(NCCc3ccc4ccccc4c3)c2c1
kinase still bound, per cent of control (DCLK1 (human)): 89% | kinase still bound, per cent of control (MKNK1 (human)): 64% | kinase still bound, per cent of control (NTRK3 (human)): 100% | kinase still bound, per cent of control (FGFR2 (human)): 90% | kinase still bound, per cent of control (PRKG1 (human)): 85% | kinase still bound, per cent of control (EGFR (human)): 75% | kinase still bound, per cent of control (TLK1 (human)): 92% | kinase still bound, per cent of control [1]: 94% | kinase still bound, per cent of control (EPHA1 (human)): 89% | kinase still bound, per cent of control (PIM1 (human)): 95% | kinase still bound, per cent of control (STK36 (human)): 100% | kinase still bound, per cent of control (ROCK1 (human)): 100% | kinase still bound, per cent of control [2]: 86% | kinase still bound, per cent of control (MAPK10 (human)): 100% | kinase still bound, per cent of control (CHUK (human)): 74% | kinase still bound, per cent of control (CSNK1D (human)): 99% | kinase still bound, per cent of control (PIM2 (human)): 89% | kinase still bound, per cent of control (AKT1 (human)): 81% | kinase still bound, per cent of control (STK32C (human)): 100% | kinase still bound, per cent of control (PIK3C2B (human)): 85% | kinase still bound, per cent of control (ACVR2A (human)): 100% | kinase still bound, per cent of control (MAP4K1 (human)): 81% | kinase still bound, per cent of control (PRKD3 (human)): 99% | kinase still bound, per cent of control (CDKL2 (human)): 71% | kinase still bound, per cent of control (BLK (human)): 65% | kinase still bound, per cent of control (CaMK1 (human)): 99% | kinase still bound, per cent of control (CSF1R (human)): 77% | kinase still bound, per cent of control (STK33 (human)): 96% | kinase still bound, per cent of control (MAPK3 (human)): 95% | kinase still bound, per cent of control (CDC42BPG (human)): 92% | kinase still bound, per cent of control (ERBB2 (human)): 94% | kinase still bound, per cent of control (CDC42BPB (human)): 100% | kinase still bound, per cent of control (DAPK3 (human)): 74% | kinase still bound, per cent of control (MYLK (human)): 100% | kinase still bound, per cent of control [3]: 100% | kinase still bound, per cent of control (STK38L (human)): 90% | kinase still bound, per cent of control (IKBKE (human)): 100% | kinase still bound, per cent of control (CDK2 (human)): 93% | kinase still bound, per cent of control [4]: 100% | kinase still bound, per cent of control (CDK11B (human)): 99% | kinase still bound, per cent of control (MARK4 (human)): 85% | kinase still bound, per cent of control [5]: 80% | kinase still bound, per cent of control (MAPK9 (human)): 97%
